Laboratory results as given in patent US10280159B2 (AbbVie Deutschland GmbH & Co. KG, priority 2015, dated 2019).

What was measured:
Assay type in all cases: cell-based
[1] = target: T1, human S1PR5 (Homo sapiens, UniProt Q9H228); assay: Intracellular Ca2+ release (FLIPR) agonist potency, S1P5; settings: recombinant CHO-K1 cells expressing human S1PR5, aequorin, Gq/i5; Calcium 5 FLIPR; read-out: S1P5 EC50 range
T1 construct: host or cells: CHO-K1
Procedure: (§1) Agonistic activity was measured using the method described below.
(§2) Intracellular Ca^2+ Release
(§3) Agonist potency and intrinsic activity was assessed by measurement of intracellular Ca^2+ release. Recombinant CHO-K1 cells (Euroscreen, Brussels, Belgium) expressing human S1PR5, S1PR1, S1PR3 or S1PR4 receptors, aequorin, and GTP binding protein Gq/i5 were cultured using a medium containing nutrient mixture F-12 Ham (Sigma-Aldrich) with 10% FBS, and 100 μg/mL gentamicin and equilibrated at 5% CO2.
(§4) Phospho-fingolimod was used as positive control. Antagonists were pre-incubated for 10 min with cells before addition of the agonist (phospho-fingolimod at EC80). Measurements were performed using a fluorometric imaging plate reader FLIPR®tetra (Molecular Devices). Agonist at the human S1P receptors were characterized by deducing EC50 (potency) values from a nonlinear fit to the measured fluorescence raw data after normalization to the reference agonist (phospho-fingolimod) curve.

[2] = target: T2, human S1PR1 (Homo sapiens, UniProt P21453); assay: Intracellular Ca2+ release (FLIPR) agonist potency, S1P1; settings: recombinant CHO-K1 cells expressing human S1PR1, aequorin, Gq/i5; Calcium 5 FLIPR; read-out: S1P1 EC50
T2 construct: host or cells: CHO-K1
T2 sequence (P21453 whole entry): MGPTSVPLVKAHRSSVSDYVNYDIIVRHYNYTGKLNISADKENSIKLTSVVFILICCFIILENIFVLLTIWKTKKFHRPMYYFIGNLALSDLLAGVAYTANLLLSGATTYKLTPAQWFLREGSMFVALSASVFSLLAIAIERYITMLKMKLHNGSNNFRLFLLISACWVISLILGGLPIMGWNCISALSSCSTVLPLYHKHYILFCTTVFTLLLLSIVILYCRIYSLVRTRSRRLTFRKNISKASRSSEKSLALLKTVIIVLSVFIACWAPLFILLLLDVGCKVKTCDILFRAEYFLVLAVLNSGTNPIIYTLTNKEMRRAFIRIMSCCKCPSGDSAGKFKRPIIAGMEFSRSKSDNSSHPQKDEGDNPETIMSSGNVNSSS
Procedure: as §1, §2, §3, §4

[3] = target: T3, human S1PR4 (Homo sapiens, UniProt O95977); assay: Intracellular Ca2+ release (FLIPR) agonist potency, S1P4; settings: recombinant CHO-K1 cells expressing human S1PR4, aequorin, Gq/i5; Calcium 5 FLIPR; read-out: S1P4 EC50
T3 construct: host or cells: CHO-K1
T3 sequence (O95977 1-384): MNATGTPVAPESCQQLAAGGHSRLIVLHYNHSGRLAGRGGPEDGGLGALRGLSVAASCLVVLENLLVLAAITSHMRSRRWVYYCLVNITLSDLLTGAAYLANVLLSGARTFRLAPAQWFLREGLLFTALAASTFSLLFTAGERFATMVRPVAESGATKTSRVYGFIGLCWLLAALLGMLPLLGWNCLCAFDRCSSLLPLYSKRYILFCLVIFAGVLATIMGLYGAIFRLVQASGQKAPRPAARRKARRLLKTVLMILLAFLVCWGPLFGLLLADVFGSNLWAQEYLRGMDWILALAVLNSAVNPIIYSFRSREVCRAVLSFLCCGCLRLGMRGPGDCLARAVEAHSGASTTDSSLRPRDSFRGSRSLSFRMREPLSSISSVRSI
Procedure: as §1, §2, §3, §4

T1 sequence (Q9H228 whole entry): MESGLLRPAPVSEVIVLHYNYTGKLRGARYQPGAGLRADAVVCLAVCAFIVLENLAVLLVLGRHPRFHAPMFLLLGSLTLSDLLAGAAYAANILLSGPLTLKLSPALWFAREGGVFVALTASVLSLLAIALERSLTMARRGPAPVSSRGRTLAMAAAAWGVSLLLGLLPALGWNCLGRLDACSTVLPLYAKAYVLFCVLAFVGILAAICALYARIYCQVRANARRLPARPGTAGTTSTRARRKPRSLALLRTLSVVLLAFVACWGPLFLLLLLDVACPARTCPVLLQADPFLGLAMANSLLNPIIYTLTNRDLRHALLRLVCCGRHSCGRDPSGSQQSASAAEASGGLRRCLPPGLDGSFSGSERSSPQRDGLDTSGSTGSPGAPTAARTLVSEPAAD

Structure (SMILES)	EC50 [1]	EC50 [2]	EC50 [3]
Cc1ccc(C(F)(F)F)c(COc2ccc3c(c2)CCC(OCC(=O)O)C3)c1 (stereo not drawn) [Compound 195, 2-[6-[[5-methyl-2-(trifluoromethyl)phenyl]methoxy]tetralin-2-yl]oxyacetic acid]	1 to 10 µM	> 1 µM	> 1 µM
CCC1(C(=O)O)CN([C@@H]2COc3cc(OCc4c(Cl)cccc4Cl)ccc3C2)C1 [Compound 140, (S)-1-(7-((2,6-dichlorobenzyl)oxy)chroman-3-yl)-3-ethylazetidine-3-carboxylic acid]	1 to 10 µM	> 1 µM	> 1 µM
Cc1cc(COc2ccc3c(c2)OCC(N2CC(C(=O)O)C2)C3)ccc1F (stereo not drawn) [Compound 84, 1-[7-[(4-fluoro-3-methyl-phenyl)methoxy]chroman-3-yl]azetidine-3-carboxylic acid]	1 to 10 µM	> 1 µM	> 1 µM
Cc1cccc(Cl)c1COc1ccc2c(c1)OCC(N1CC(C(=O)O)C1)C2 (stereo not drawn) [Compound 71, 1-(7-((2-chloro-6-methylbenzyl)oxy)chroman-3-yl)azetidine-3-carboxylic acid]	0.1 to 1 µM	> 1 µM	> 1 µM
O=C(O)CCOC1CCc2cc(OCc3ccccc3OC(F)(F)F)ccc2C1 (stereo not drawn) [Compound 190, 3-[6-[[2-(trifluoromethoxy)phenyl]methoxy]tetralin-2-yl]oxypropanoic acid]	1 to 10 µM	> 1 µM	> 1 µM
O=C(O)CCOC1CCc2cc(OCc3cccc(F)c3)ccc2C1 (stereo not drawn) [Compound 180, 3-[6-[(3-fluorophenyl)methoxy]tetralin-2-yl]oxypropanoic acid]	1 to 10 µM	> 1 µM	> 1 µM
O=C(O)CNC1COc2cc(OCC3CCCCC3)ccc2C1 (stereo not drawn) [Compound 113, 2-[[7-(cyclohexylmethoxy)chroman-3-yl]amino]acetic acid]	0.1 to 1 µM	> 1 µM	> 1 µM
O=C(O)C1CN(C2COc3cc(OCCc4ccc(Cl)cc4)ccc3C2)C1 (stereo not drawn) [Compound 228, 1-[7-[2-(4-chlorophenyl)ethoxy]chroman-3-yl]azetidine-3-carboxylic acid]	1 to 10 µM	> 1 µM	> 1 µM
O=C(O)C1CN(C2COc3cc(Oc4c(Cl)cccc4Cl)ccc3C2)C1 (stereo not drawn) [Compound 229, 1-[7-(2,6-dichlorophenoxy)chroman-3-yl]azetidine-3-carboxylic acid]	1 to 10 µM	> 1 µM	> 1 µM
O=C(O)COC1CCc2cc(OCc3cc(Cl)ccc3Cl)ccc2C1 (stereo not drawn) [Compound 164, 2-[6-[(2,5-dichlorophenyl)methoxy]tetralin-2-yl]oxyacetic acid]	1 to 10 µM	> 1 µM	> 1 µM
Cc1c(F)cccc1COc1ccc2c(c1)OCC(N1CC(C(=O)O)C1)C2 (stereo not drawn) [Compound 96, 1-[7-[(3-fluoro-2-methyl-phenyl)methoxy]chroman-3-yl]azetidine-3-carboxylic acid]	0.1 to 1 µM	> 1 µM	> 1 µM
O=C(O)CCOC1CCc2cc(OCc3cccc(Cl)c3Cl)ccc2C1 (stereo not drawn) [Compound 189, 3-[6-[(2,3-dichlorophenyl)methoxy]tetralin-2-yl]oxypropanoic acid]	1 to 10 µM	> 1 µM	> 1 µM
O=C(O)COC1COc2cc(OCc3c(F)ccc(Cl)c3F)ccc2C1 (stereo not drawn) [Compound 234, 2-((7-((3-chloro-2,6-difluorobenzyl)oxy)chroman-3-yl)oxy)acetic acid]	1 to 10 µM	> 1 µM	> 1 µM
O=C(O)C1CN(C2COc3cc(OCc4ccc(F)c(C(F)(F)F)c4)ccc3C2)C1 (stereo not drawn) [Compound 85, 1-[7-[[4-fluoro-3-(trifluoromethyl)phenyl]methoxy]chroman-3-yl]azetidine-3-carboxylic acid]	1 to 10 µM	> 1 µM	> 1 µM
